Experimental data taken from patent publication US7972848B2, “Isolation and identification of cross-reactive T cells” (Opexa Therapeutics, Inc., priority 2002, dated 2011).

Experiments:
HLA-DR (DRB1*1501) = HLA-DR (DRB1*1501) (Homo sapiens, UniProt P01903+P01911); settings: cited from earlier work
[1] = tested on: MBP83-99 specific and MBP93-105 specific T cell clones; assay: Cross-reactivity of T cell responses of MBP83-99 and MBP93-105 specific T cell clones; format: cell-based, human; settings: four MBP83-99 specific and six MBP93-105 specific T cell clones; data not shown
From the text: Although the T cell recognition of MBP in MS patients is relatively heterogeneous, some regions of MBP have immunodominant properties, such as the 84-102/83-99 region and the 151-170 region of MBP. The immunodominant properties of these regions may be associated with their binding affinity to HLA-DR (DRB 1*1501) preferentially expressed in the MS population. […] Although the 93-105 region of MBP homologues and the 1-13 region of HHV-6 (U24) have an overlap of 4 amino acids (PRTP) (SEQ ID NO:11) with the 83-99 immunodominant region of MBP, the PRTP sequence alone is not sufficient to form an individual T cell epitope and is unlikely to represent the immunodominant T cell epitopes. […] However, the possibility exists that the increased T cell sensitization to MBP in MS patients may be initially triggered by the HHV-6 antigen that shares the sequence homology with MBP93-105 and later spreads to other epitopes of MBP by the mechanism known as epitope spreading.

[2] = tested on: peripheral blood mononuclear cells (PBMC); assay: Estimated precursor frequency of peptide-reactive and cross-reactive T cells in PBMC (proliferation assay); format: cell-based, human; settings: for estimated frequency of T cells specific for the antigen: in PBMC, primed and tested with the same antigen; for estimated frequency of cross-reactive T cells (reactive to both peptides) primed by the peptide: primed by the labelled peptide
Protocol: The T cell responses to two synthetic peptides containing an identical core sequence of seven amino acids was measured to estimate the precursor frequency of cross-reactive T cells in PBMC. Two 13-mer peptides corresponding to residues 1-13 of HHV-6 U24 and residues 93-105 of MBP were synthesized and purified to greater than 95%. The MBP93-105 and HHV-6 (U24)1-13 peptides contain the identical core sequence of 7 amino acids with distinct flanking residues (MBP-IVTPRTPPPSQGK and HHV6-MDRPRTPPPSYSE) (SEQ ID NO: 8 and SEQ ID NO: 9, respectively).
Peripheral blood mononuclear cells (PBMC) were seeded at 3×10^5 cells per well in 96-well U-bottomed plates in the presence of the peptides of MBP93-105 or HHV-6 (U24)1-13 at 30 μg/ml or the whole MBP (40 μg/ml), respectively. A total of 24 wells were plated for each antigen. Seven days later, the cultures were tested for the reactivity to both peptides using AIM-V serum free medium (Gibco BRL, Grand Island, N.Y.) alone as a control. To this end, each culture was split into three identical aliquots and tested for the reactivity to MBP and the indicated peptides in duplicate. Two aliquots were tested for reactivity to peptide MBP93-105 and peptide HHV-6 (U24)1-13 at the same concentration of 30 μg/ml, respectively, in the presence of irradiated (6,000 rads) autologous PBMC (10^5 cells per well) as a source of antigen-presenting cells (APC). One aliquot served as a control (medium alone in the presence of APC). The reactivity of the end cultures was measured after 72 hours by proliferation assays as described in Zhang et al., “MHC restricted clonotypic depletion of human myelin basic protein by T cell vaccination,” Science 261:1451-1454 (1993), which is hereby incorporated by reference in its entirety.
According to the reactivity of the resulting T cells, they were categorized as mono-specific T cells or cross-reactive T cells. Mono-specific MBP- or HHV-6 reactive T cells were reactive only to the peptide originally used to prime the cells. Mono-specific T cells were defined as reactive to the given peptide when CPM was greater than 1,000 and exceeded CPM of the control (medium alone) and of the other peptide by at least three-fold. Cross-reactive T cells were reactive to both peptides after being originally primed with only one of the peptides. Cross-reactive T cells were defined as CPM of both peptides exceeded 1,000 and the control CPM by at least three-fold. The frequency of peptide-reactive T cells was then estimated by dividing the number of positive wells by the total number of PBMC seeded in the initial culture.

serum IgG antibodies = assay: Serum antibody reactivity to the peptides by ELISA; format: binding, human; settings: serum dilutions 1:50 and 1:100; MS patients compared to control subjects
Protocol: We further addressed whether the increased T cell responses to both peptides of HHV-6 (U24)1-13 and MBP93-105 were consistent with potential B cell sensitization to the peptides in MS patients as compared to healthy controls. To this end, serum specimens freshly obtained from the same MS patients and the control subjects were examined for specific antibody reactivity to the peptides by ELISA.
Antibody titers were determined in serum specimens by ELISA. Briefly, microtiter plates were coated overnight at 4° C. with the peptides at 5 μg/ml in a carbonate buffer (100 mM, pH 9.5). An irrelevant peptide and MBP41-59 were used as reference peptides. Non-specific binding sites were saturated with FBS-PBS for 1 hour and washed subsequently with PBS-T. Serum samples were prepared in serial dilutions (1:50, 1:100, 1:500) with FBS-PBS and 100 μl of each sample were added in duplicate wells. The rest of the procedure is the same as that described above.

Substance: 84-103: peptide corresponding to the 84-103 region of MBP (DPGSRPHLIRLFSRDAPGRE; UniProt P02686 84-103, looked up, fragment)
- binding affinity to DRB1*1501 / HLA-DR (HLA-DR (DRB1*1501)): highest binding affinity

Substance: 144-163: peptide corresponding to the 144-163 region of MBP (HGSKYLATASTMDHARHGFL; UniProt P02686 144-163, looked up, fragment)
- binding affinity to DRB1*1501 / HLA-DR (HLA-DR (DRB1*1501)): highest binding affinity

Substance: IVTPRTPPPSQGK (listed as Homo sapiens) [MBP93-105]
- cross-reactivity between T cell responses to MBP83-99 peptide and MBP93-105 peptide [1]: no cross-reactivity
- estimated frequency of T cells specific for the antigen ([2]; MS patients): 0.53×10^−6
- estimated frequency of cross-reactive T cells (reactive to both peptides) primed by the peptide ([2]; MS patients): 0.36×10^−6
- estimated frequency of T cells specific for the antigen ([2]; healthy controls): 0.19×10^−6
- estimated frequency of cross-reactive T cells (reactive to both peptides) primed by the peptide ([2]; healthy controls): 0.09×10^−6
- serum antibody titers for the peptide (serum IgG antibodies): elevated
- binding affinity to DRB1*1501 / HLA-DR (HLA-DR (DRB1*1501)): does not have high binding affinity

Substance: MDRPRTPPPSYSE (listed as Homo sapiens) [HHV-6 (U24)1-13]
- cross-reactive T cells primed by the peptide as share of all T cells recognizing peptide MBP93-105 ([2]; MS cohort): greater than 50%
- estimated frequency of T cells specific for the antigen ([2]; MS patients): 0.7×10^−6
- frequency of T cells initially primed with the whole MBP and reacted to peptide HHV-6 (U24)1-13 ([2]; MS patients, p=0.08 vs control): 0.33×10^−6
- frequency of T cells initially primed with the whole MBP and reacted to peptide HHV-6 (U24)1-13 ([2]; control group): 0.05×10^−6
- estimated frequency of T cells specific for the antigen ([2]; healthy controls): 0.32×10^−6
- estimated frequency of cross-reactive T cells (reactive to both peptides) primed by the peptide ([2]; healthy controls): 0.17×10^−6
- serum antibody titers for the peptide (serum IgG antibodies): elevated

Substance: myelin basic protein [whole MBP]
- estimated frequency of T cells specific for the antigen ([2]; MS patients): 0.6×10^−6
- estimated frequency of T cells specific for the antigen ([2]; healthy controls): 0.6×10^−6
